The results in this text go back to patent US20070015803A1, “Methods for treating diseases through interruption of protein maturation, compounds that inhibit the function of molecular chaperones such as protein disulfide isomerases or interfere with glycosylation, pharmaceutical compositions comprising them, and screening methods for identifying therapeutic …” (Romark Laboratories L.C., priority 2005, published 2007).

Assay [1] concerns IL-1β, IL-6 and TNF-alpha. The assay can be described thus: Cytokine suppressing ability in cell culture. The class given is cell-based. Conditions: in particular IL-1β.
For assay [2], the system named is Neospora caninum. Briefly: In vitro or cell culture activity against Neospora caninum (compounds 1-13). Format: cell-based. An excerpt:
(§1) The following compounds numbered 1-13 in the table below have been synthesized and tested in vitro or in cell culture against Neospora caninum (a protozoan), para-influenza virus, sendai virus, influenza A virus, and/or rhinovirus. In addition, applicant notes that compounds 12 and 13 have shown good activity against viruses and Neospora caninum.

The subject of assay [3] is para-influenza virus, sendai virus, influenza A virus, and/or rhinovirus. The assay can be described thus: In vitro or cell culture activity against viruses. The class given is cell-based.
Text: as §1

In assay [4] the test system is rotavirus. Briefly: Children with severe rotavirus disease, versus placebo. Format: in vivo, human. Conditions: 7.5 mg/kg twice daily oral, compared to placebo.
Assay [5] concerns human colon cancer cell lines. Briefly: Replication of human colon cancer cell lines and other cell lines. Format: cell-based. The note with it: human colon cancer cell lines and a variety of other cell lines. An excerpt: (§2) Cell culture studies of the mechanism of action by which tizoxanide suppresses rotavirus infection have been carried out. […] Studies have shown that tizoxanide binds to PDI-4 of Giardia intestinalis (an extra-cellular protozoan) and that tizoxanide is effective in vitro against Giardia intestinalis. • b. Studies have shown that tizoxanide binds to PDI isolated from Neospora caninum (intracellular protozoan) and is effective in vitro against this organism. • c. […] Studies in humans have shown that adults with chronic hepatitis B or with chronic hepatitis C can be effectively treated by administering nitazoxanide 500 mg (in tablet form) twice daily for 24 weeks with the patients having undetectable virus DNA or RNA in their serum at the end of treatment.

For a further assay, the system named is chronic hepatitis C. The assay can be described thus: Adults with chronic hepatitis C, serum virus RNA. The class given is in vivo, human. Conditions: 500 mg tablet twice daily for 24 weeks.
Text: as §2

A further assay deals with chronic hepatitis B. Briefly: Adults with chronic hepatitis B, serum virus DNA. Format: in vivo, human. Conditions: 500 mg tablet twice daily for 24 weeks.
Text: as §2

The nature of assay [6]: Human subject with elevated liver enzymes due to autoimmune hepatitis. The class given is in vivo. Conditions: 500 mg twice daily orally, 10-day course.
Text: as §2

Assay [7] relates to PDI-4 of Giardia intestinalis. The assay can be described thus: Binding to PDI-4 of Giardia intestinalis.
Text: as §2

In assay [8] the test system is rotavirus. Briefly: Cell culture studies of the mechanism by which tizoxanide suppresses rotavirus infection. The class given is cell-based.
Text: as §2

For assay [9], the target named is T1, PDI isolated from Neospora caninum (Neospora caninum, UniProt F0VAI6).
T1 construct: PDI isolated from Neospora caninum; from tissue; host or cells: Neospora caninum (parasite material)
T1 sequence (F0VAI6 entry or part of it): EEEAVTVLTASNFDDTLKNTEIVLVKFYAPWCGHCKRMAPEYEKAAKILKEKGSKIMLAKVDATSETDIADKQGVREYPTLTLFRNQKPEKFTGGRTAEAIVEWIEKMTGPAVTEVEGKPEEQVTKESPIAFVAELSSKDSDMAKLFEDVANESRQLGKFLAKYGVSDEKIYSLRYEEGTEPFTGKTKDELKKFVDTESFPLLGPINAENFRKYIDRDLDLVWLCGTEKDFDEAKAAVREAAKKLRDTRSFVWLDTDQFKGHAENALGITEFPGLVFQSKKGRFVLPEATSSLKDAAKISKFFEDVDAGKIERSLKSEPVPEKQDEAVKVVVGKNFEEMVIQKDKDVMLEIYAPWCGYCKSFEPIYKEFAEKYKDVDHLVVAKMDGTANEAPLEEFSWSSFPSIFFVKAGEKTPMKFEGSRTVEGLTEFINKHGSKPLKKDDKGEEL
The assay can be described thus: Binding to PDI isolated from Neospora caninum.
Text: as §2

In a further assay the test system is Giardia intestinalis. The assay can be described thus: In vitro efficacy against Giardia intestinalis. Conditions: extra-cellular protozoan. The class given is cell-based.
Text: as §2

Assay [10] deals with pro-inflammatory cytokines: IL-2, IL-4, IL-5, IL-6, IL-8, IL-10, IL-12 and TNF-alpha. The assay can be described thus: Secretion of pro-inflammatory cytokines. Format: cell-based.
Text: as §2

Assay [11] relates to Neospora caninum. Briefly: In vitro efficacy against Neospora caninum (tizoxanide). The note with it: intracellular protozoan. The class given is cell-based.
Text: as §2

For the compound `CC(=O)Oc1c(C)cccc1C(=O)Nc1ncc(Br)s1` [Compound 3], in [1], the suppression of cytokines result is “showed activity in suppressing cytokines”.

For `O=C(Nc1cccc(F)c1)c1ccccc1O` [Compound 12, N-(3-fluorophenyl)-2-hy-droxybenzamide], in the assay on Neospora caninum [2], the “activity against Neospora caninum” value is “good activity”. Moreover, the activity against viruses result in assay [3] was “good activity”.

As for `O=C(Nc1cccc(Cl)c1)c1ccccc1O` [Compound 13, N-(3-chlorophenyl)-2-hy-droxybenzamide], the “activity against Neospora caninum” value with Neospora caninum [2] is listed as “good activity”. Also, in [3], the activity against viruses entry is on record as “good activity”.

Turning to `CC(=O)Oc1ccccc1C(=O)Nc1ncc([N+](=O)[O-])s1` [nitazoxanide], the duration of illness result in the assay with rotavirus [4] is “significantly reduces the duration of illness”. The “replication of cell lines” value in assay [5] is reported as “inhibits the replication”. The “virus RNA in serum at end of treatment” value in the assay with chronic hepatitis C is reported as “undetectable”. Also, in the assay with chronic hepatitis B, the “virus DNA in serum at end of treatment” value is listed as “undetectable”. The liver transaminases entry in [6] is recorded as “reduced liver transaminases to normal levels”.

As to `O=C(Nc1ncc([N+](=O)[O-])s1)c1ccccc1O` [tizoxanide], the “binding to PDI-4” value in assay [7] is listed as “binds”. Besides, in the assay with rotavirus [8], the “VP7 maturation to a stage allowing glycosylation” value is recorded as “prevented VP7 from reaching a stage of maturation that allowed it to be glycosylated”, the “effect on viral transcription” value is “did not affect” and the “maturation of virus protein” value was “prevent maturation of virus protein”. Further, the “effect on synthesis and/or maturation of VP7” value with rotavirus [8] (single protein identified as VP7) is “selectively affects”. For the same compound, in assay [9], the “binding to PDI” value is “binds”. The efficacy in vitro entry in the assay with Giardia intestinalis is listed as “effective”. For the same compound, the “secretion of pro-inflammatory cytokines” value in assay [10] is “inhibits secretion”. Moreover, in the assay with Neospora caninum [11], the efficacy in vitro entry is “effective”.
